Measurements published in patent US12133855B2, “Lipid-like nanocomplexes and uses thereof” (Trustees of Tufts College, priority 2018, dated 2024).
Where two headings read alike, the source gives them in different places.

How the values were obtained:
Assay type in all cases: cell-based
HeLa cells = experiment: Internalization of Nile red loaded nanoparticles (NR+ cells); details: 4 h of exposure
HeLa-DsRed cells [1] = experiment: Genome editing efficiency of (−30)GFP-Cre/OCholB LNPs (DsRed+ cells); details: for DsRed^+ cells: 8 h exposure, 24 h incubation
Excerpt: (§1) In this context, the internalization mechanism of the (−30)GFP-Cre/LNPs complexes was studied at first, by introducing different endocytosis inhibitors, i.e., sucrose (clathrin-mediated endocytosis inhibitor), methyl-β-cyclodextrin (M-β-CD, cholesterol-depleting agent), dynasore (dynamin II inhibitor) and nystatin (caveolin-mediated endocytosis inhibitor), following our previously reported procedures. […] Comparing to other combinatorial library studies, it is clear that even loaded with same cargoes and tested against same cell line, different lipidoids with different chemical structures could be internalized through very distinct pathways. Next, the genome-editing efficiencies of (−30)GFP-Cre/LNPs were determined by flow cytometry after 24 h of incubation (with 8 h of (−30)GFP-Cre/LNPs complex exposure). Three different concentrations of protein/lipidoid complexes (25 nM/1.7 μg mL^−1, 50 nM/3.4 μg mL^−1, and 100 nM/6.6 μg mL^−1) were tested for each lipidoid nanoparticle. […] For example, the DsRed^+ cells were recorded as 10.5%/24.9%/88.9%, 13.5%/55.4%/88.8%, and 27.7%/47.8%/94.7% for (−30)GFP-Cre loaded 75-OCholB, 76-OCholB and 77-OCholB, respectively, at the protein concentration of 25, 50 and 100 nM. […] Then, the cytotoxicity profiles of (−30)GFP-Cre/LNPs, (−30)GFP-Cre/Lpf2k and naked (−30)GFP-Cre at different concentrations against HeLa-DsRed cells (8 h of exposure; (−30)GFP-Cre/LNPs=25 nM/1.7 μg mL^−1, 50 nM/3.4 μg mL^−1, and 100 nM/6.6 μg mL^−1) are measured using MTT assay after 24 h of incubation. […] For (−30)GFP-Cre/75-OCholB treated cells, the viabilities were determined to be 95.5%, 91.8% and 83.1%, at the protein concentration of 25, 50 and 100 nM, respectively; the numbers for (−30)GFP-Cre/76-OCholB and (−30)GFP-Cre/77-OCholB are 97.8%/98.2%/97.2 and 100.9%/96.6%/98.6%. […] Meanwhile, the morphology changes of HeLa-DsRed cell treated with different nanoparticle formulations were studied and the results are shown in FIG. 15E. […] Samples found in upper left quadrant are non-toxic and inefficient for delivery; samples in lower left quadrant are toxic and inefficient; samples in lower right quadrant are efficient but toxic; samples in upper right quadrant are non-toxic and efficient, which would be top candidates for further study. It is clear that Lpf2k (shown in dotted purple circle) at high concentration is relatively efficient for genome editing, while also toxic to the target cells. On the other hand, most of the (−30)GFP-Cre loaded OCholB LNPs are almost non-toxic when compared to (−30)GFP-Cre/Lpf2k, similar to naked (−30)GFP-Cre protein. 87-OCholB, 90-OCholB and 304-OCholB (shown in dotted dark blue circle) are less efficient for genome-editing; while high genome editing efficacy and excellent tolerability were achieved by using 75-OCholB, 76-OCholB and 77-OCholB (shown in dotted green circle).

HeLa-DsRed cells [2] = details: for cell viability: 8 h exposure, MTT after 24 h; for cell morphology changes: bright field images
Description: All experiments were performed in quadruplicate.
as §1

[3] = test system: Jurkat (human T lymphocyte cells); experiment: GFP mRNA delivery (GFP+ cells); details: LNP/mRNA=10/1, [mRNA]=0.86 μg mL^−1, 24 h
Description: To examine the delivery spectrum of the newly developed LNPs, the GFP mRNA loaded OCholB LNPs were then challenged against other four types of cell lines. B16F10 (mouse melanoma cells), HEK 293 (human embryonic kidney cells), NIH 3T3 (mouse embryonic fibroblast cells) and Jurkat (human T lymphocyte cells) cells were tested (LNP/mRNA=10/1; [mRNA]=0.86 μg mL^−1; 24 h exposure) and the results are shown in FIG. 14D. As the positive control, Lpf2k turned out to be very efficient to deliver GFP mRNA into B16F10 (63.2% of GFP^+ cells), HEK 293 (80.1%) and NIH 3T3 (70.1%) cells, while slightly less efficient to Jurkat cell (28.7%), which is usually considered to be one of the most difficult-to-transfect cell lines. […] For example, 63.0%, 60.9%, 54.1% and 50.1% of GFP^+ cells were determined from mRNA/75-OCholB treated B16F10, HEK 293, NIH 3T3 and Jurkat cells; and the numbers for mRNA/76-OCholB treated cells were 70.7%, 75.8%, 24.1% and 7.7%, respectively. It was obvious that not only the types of lipidoids, but also the target cell lines could have huge impacts on the delivery efficacy. Overall, the positive control, Lpf2k, is a relatively high-activity broad-spectrum transfection reagent; most of the OCholB LNPs (6 out of 9) are also effective broad-spectrum transfection reagents under the tested conditions. […] It was expected that through further formulation optimization, such as adding excipients (helper lipids like small molecular phospholipids (e.g. DOPE and DSPC) and macromolecules lipids (e.g. PEG-DSPE and PEG-Ceramide)) into the LNPs and/or using more controllable self-assembly procedures, improved transfection efficiency of the fully substituted OCholB LNPs could be achieved.

[4] = protein/lipidoid 25 nM/1.7 μg mL^−1
[5] = protein/lipidoid 50 nM/3.4 μg mL^−1
[6] = (−30)GFP-Cre 25 nM/1.7 μg mL^−1
[7] = (−30)GFP-Cre 50 nM/3.4 μg mL^−1
[8] = (−30)GFP-Cre 100 nM/6.6 μg mL^−1
[9] = protein/lipidoid 100 nM/6.6 μg mL^−1

| Compound | NR^+ cells (HeLa cells) [%] | DsRed^+ cells (HeLa-DsRed cells [1]; [4]) [%] | DsRed^+ cells (HeLa-DsRed cells [1]; [5]) [%] | cell viability (HeLa-DsRed cells [2]; [6]) [%] | cell viability (HeLa-DsRed cells [2]; [7]) [%] | cell viability (HeLa-DsRed cells [2]; [8]) [%] | cell morphology changes (HeLa-DsRed cells [2]) | GFP^+ cells [3] | GFP^+ cells ([3]; listed as mRNA/75-OCholB) [%] | DsRed^+ cells (HeLa-DsRed cells [1]; [9]) | genome editing efficacy (DsRed^+ cells), overall (HeLa-DsRed cells [1]; (−30)GFP-Cre 25, 50 and 100 nM) |
| --- | --- | --- | --- | --- | --- | --- | --- | --- | --- | --- | --- |
| CCN(CC)CCN(CCC(=O)OCCSSCCNC(=O)OC1CCC2(C)C(=CCC3C2CCC2(C)C(C(C)CCCC(C)C)CCC32)C1)CCC(=O)OCCSSCCNC(=O)OC1CCC2(C)C(=CCC3C2CCC2(C)C(C(C)CCCC(C)C)CCC32)C1 (stereo not drawn) [Lipidoid 75-OCholB] | 85.2 | 10.5 | 24.9 | 95.5 | 91.8 | 83.1 | less affected | particular advantages over Lpf2k | 50.1 | – | – |
| CC(C)CCCC(C)C1CCC2C3CC=C4CC(OC(=O)NCCSSCCOC(=O)CCN(CCC(=O)OCCSSCCNC(=O)OC5CCC6(C)C(=CCC7C6CCC6(C)C(C(C)CCCC(C)C)CCC76)C5)CCN5CCCC5)CCC4(C)C3CCC12C (stereo not drawn) [Lipidoid 76-OCholB] | 65.0 | 13.5 | 55.4 | 97.8 | 98.2 | 97.2 | less affected | 7.7% | – | – | – |
| CC(C)CCCC(C)C1CCC2C3CC=C4CC(OC(=O)NCCSSCCOC(=O)CCN(CCC(=O)OCCSSCCNC(=O)OC5CCC6(C)C(=CCC7C6CCC6(C)C(C(C)CCCC(C)C)CCC76)C5)CCC5CCCN5C)CCC4(C)C3CCC12C (stereo not drawn) [Lipidoid 77-OCholB] | 90.3 | 27.7 | 47.8 | 100.9 | 96.6 | 98.6 | less affected | particular advantages over Lpf2k | – | – | – |
| CC(C)CCCC(C)C1CCC2C3CC=C4CC(OC(=O)NCCSSCCOC(=O)CCN(CCC(=O)OCCSSCCNC(=O)OC5CCC6(C)C(=CCC7C6CCC6(C)C(C(C)CCCC(C)C)CCC76)C5)CCN(C)C)CCC4(C)C3CCC12C (stereo not drawn) [Lipidoid 78-OCholB] | – | – | – | – | – | – | – | particular advantages over Lpf2k | – | out-performed Lpf2k | – |
| CC(C)CCCC(C)C1CCC2C3CC=C4CC(OC(=O)NCCSSCCOC(=O)CCN(CCCN(C)C)CCC(=O)OCCSSCCNC(=O)OC5CCC6(C)C(=CCC7C6CCC6(C)C(C(C)CCCC(C)C)CCC76)C5)CCC4(C)C3CCC12C (stereo not drawn) [Lipidoid 80-OCholB] | – | – | – | – | – | – | – | – | – | out-performed Lpf2k | – |
| CCN(CC)CCCN(CCC(=O)OCCSSCCNC(=O)OC1CCC2(C)C(=CCC3C2CCC2(C)C(C(C)CCCC(C)C)CCC32)C1)CCC(=O)OCCSSCCNC(=O)OC1CCC2(C)C(=CCC3C2CCC2(C)C(C(C)CCCC(C)C)CCC32)C1 (stereo not drawn) [Lipidoid 81-OCholB] | – | – | – | – | – | – | – | – | – | out-performed Lpf2k | – |
| CC(C)CCCC(C)C1CCC2C3CC=C4CC(OC(=O)NCCSSCCOC(=O)CCN(C)CCN(CCN(C)CCC(=O)OCCSSCCNC(=O)OC5CCC6(C)C(=CCC7C6CCC6(C)C(C(C)CCCC(C)C)CCC76)C5)CCN(C)CCC(=O)OCCSSCCNC(=O)OC5CCC6(C)C(=CCC7C6CCC6(C)C(C(C)CCCC(C)C)CCC76)C5)CCC4(C)C3CCC12C (stereo not drawn) [Lipidoid 304-OCholB] | – | – | – | – | – | – | – | – | – | – | less efficient at delivery |
